The subject of test [1] is Holstein bull calves. Put plainly: Further trial, calf milk replacer without psyllium, with or without sorbitol: weaning scores. As to conditions: 6 g per day of sorbitol; no psyllium. The test is classed as in vivo. From the text:
(§1) A further trial was ran to determine what effect sorbitol without a dietary fiber would have on calves fed an intensified diet of calf milk replacer. Forty-six three to ten day old Holstein bull calves weighing approximately 90 to 100 pounds were fed an intensified diet of calf milk replacer. Twenty-four calves were fed a calf milk replacer without psyllium and without sorbitol and twenty-two calves were fed calf milk replacer without psyllium but with sorbitol. […] were fed 6 grams each per day of sorbitol. Data for parameters presented in the Tables above was analyzed using the general linear model (GLM) statistical procedure of SAS™. Statistical analysis software for a randomized complete block design that included both the particular feed regimen and the week of the test period in the model statement. The SAS™ statistical analysis software is available from SAS Institute, Inc. of Cary, N.C. Additionally, all data was analyzed to determine the mean of the data for each variable under consideration during the collection period for the particular data. Additionally, the PDiff function of the GLM statistical procedure was used to characterize the mean values of the data by providing for comparisons between mean data values for the calves of different treatments for particular test parameters or variables.

In test [2] the test system is Holstein bull calves. Put plainly: Further trial, calf milk replacer without psyllium, with or without sorbitol: scour score and scour days. Conditions: 6 g of sorbitol per day. It counts as in vivo.
Excerpt: as §1

Test [3] has as its system Holstein bull calves. Put plainly: Further trial, calf milk replacer without psyllium, with or without sorbitol: respiratory scores. The test is classed as in vivo. Conditions: 6 g per day of sorbitol; no psyllium.
Excerpt: as §1

Test [4] is described as follows: Further trial, calf milk replacer without psyllium, with or without sorbitol: weight gain, CMR consumption, starter intake, feed:gain. It counts as in vivo, Holstein bull calves. Conditions: 6 g per day of sorbitol.
Excerpt: as §1

`OC[C@@H](O)[C@@H](O)[C@H](O)[C@@H](O)CO` [sorbitol]: the “difference in weaning scores vs calves not fed any sorbitol” value with Holstein bull calves [1] is on record as “no statistically significant difference”. For the same molecule, in the test on Holstein bull calves [2], the “difference in scour score vs calves fed no sorbitol” value was “no statistically significant different” and the “difference in scoured days vs calves fed no sorbitol” value is “no statistically significant different”. Also, the “difference in respiratory scores vs calves not fed any sorbitol” value with Holstein bull calves [3] is recorded as “no statistically significant difference”. In test [4], the “difference in average feed:gain (feed efficiency) vs calves fed no sorbitol” value is listed as “no statistically significant difference”, the “difference in calf milk replacer consumption vs calves fed no sorbitol” value is given as “no statistically significant difference”, the “difference in starter feed intake vs calves fed no sorbitol” value is given as “no statistically significant difference” and the “difference in total weight gain vs calves fed no sorbitol” value is recorded as “no statistically significant difference”.

For the origin of these results see patent US10201580B2, “Methods of feeding animals liquid feed with soluble fiber and sugar alcohol” (PURINA ANIMAL NUTRITION LLC, priority 2004, dated 2019).
